Source: ChEMBL document CHEMBL1155500, “The metabolites of mangrove endophytic fungus Zh6-B1 from the South China Sea” (2010)

Experiment: Cytotoxicity against human KV/MDR cells at 100 uM after 48 hrs by MTT assay
Type: functional
Conditions: read-out: GI

Compound | inhibition of growth at 100 µM [%]
C[C@@H]1C[C@@H](O)CCCc2cc(O)cc(O)c2C(=O)O1 | 41.6
C[C@@H]1C[C@H](O)CCCc2cc(O)cc(O)c2C(=O)O1 | 42.4
